Legend:
LBD of LXRβ = biological target: T1, LBD of LXRβ (Homo sapiens, UniProt P55055); assay: LanthaScreen TR-FRET LXRβ coactivator assay (LXR binding assay); type: biochemical; conditions: agonist; average values; read-out: LXRβ EC50
T1 construct: purchased Thermo Fisher Scientific
T1 sequence (P55055 222-460 limits assumed): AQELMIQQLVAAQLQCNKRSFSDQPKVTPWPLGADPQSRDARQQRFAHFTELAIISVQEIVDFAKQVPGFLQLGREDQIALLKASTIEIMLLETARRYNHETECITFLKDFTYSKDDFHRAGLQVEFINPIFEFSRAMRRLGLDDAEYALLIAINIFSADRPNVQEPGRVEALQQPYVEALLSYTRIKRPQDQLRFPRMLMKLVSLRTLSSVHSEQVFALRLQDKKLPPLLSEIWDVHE
Procedure: (§1) Binding assays of graded concentrations of vitamin D3 or lumisterol hydroxyderivatives to LXRα/β were performed using the LanthaScreen TR-FRET LXRα/β Coactivator kit (Thermo Fisher Scientific, Inc., Waltham, MA) following the manufacture’s protocol. Briefly, after addition of LXRα/β-LBD to the derivatives, a mixture of peptide (Fluorescein-TRAP220/DRIP-2 for LXRα or Fluorescein-D22 for LXRβ) and antibody (Tb-anti-GST) was added to the reaction followed by incubation in room temperature for 2 h. TR-FRET ratio was calculated by dividing the emission at 520 nm by the emission at 495 nm using Synergy neo2 (BioTek, Winooski, VT).

[1] = system: LXR-response element (LXRE)-driven reporter in CHO cells; assay: LXRE-driven luciferase reporter assay in CHO cells; type: cell-based; conditions: 10^–7 M
Procedure: The effects of vitamin D3 and L3 hydroxyderivatives were tested on the LXRE transcriptional activity using pGreenFire1-LXRE-in-ApoE Lentivirus (System Biosciences, Palo Alto, CA). This plasmid was transduced in CHO and HaCaT cells following the manufacture’s protocol and the cells used as a stable LXRE expressed tool. Briefly, the virus was transduced into the cells using TransDux MAX Lentivirus Transduction Enhancer (System Biosciences, Palo Alto, CA) and screened to select the transduced cells using puromycin. The transduced cells were treated with the compounds for 24 h in media containing 5% cFBS (charcoal-treated fetal bovine serum) and the luminescence was read by ONE-Glo Luciferase Assay System (Promega, Madison, WI) using Cytation 5 (BioTek, Winooski, VT).

LBD of LXRα = biological target: T2, LBD of LXRα (Homo sapiens, UniProt Q13133); assay: LanthaScreen TR-FRET LXRα coactivator assay (LXR binding assay); type: biochemical; conditions: agonist; average values; read-out: LXRα EC50
T2 construct: after addition of LXRα/β-LBD to the derivatives; purchased Thermo Fisher Scientific
T2 sequence (Q13133 209-447 limits assumed): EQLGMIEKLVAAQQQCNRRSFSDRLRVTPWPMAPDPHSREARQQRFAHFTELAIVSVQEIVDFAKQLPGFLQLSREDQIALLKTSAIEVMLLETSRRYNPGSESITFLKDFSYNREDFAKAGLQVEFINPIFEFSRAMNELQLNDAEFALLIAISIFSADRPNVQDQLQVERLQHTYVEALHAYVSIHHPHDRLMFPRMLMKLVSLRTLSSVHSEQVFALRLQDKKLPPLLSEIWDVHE
Procedure: as §1

ABCA1 = assay: qPCR of ABCA1 in HaCaT keratinocytes; type: cell-based, human; conditions: 10^–7 M
Procedure: HaCaT keratinocytes were cultured as described previously. For RNA isolation the cells were maintained in TPP tissue culture petri dishes (Ø60 mm, 22.1 cm^2) in DMEM containing 10% cFBC to reach semi-confluence and then exposed to 10^–7 M compounds or a corresponding concentration of ethanol solvent.
RNA isolated from either fibroblasts, HaCaT cells or brain was submitted for cDNA synthesis (High Capacity cDNA Reverse Transcription Kit with RNase Inhibitor, Applied Biosystems) following the manufacturers’ protocols. RT-PCR was carried out using Cyber green, in triplicates; as previously described. Approximately, 750 ng of cDNA was used for PCR reactions. GAPDH and CIC-B were used as internal controls. Primer sequences are listed in Supplementary Table 27. Data were analyzed using GraphPad Prism statistical software one way ANOVA or t-test, where appropriate; *p < 0.05; **p < 0.01; ***p < 0.001.

LXRα = biological target: T3, LXRα (Homo sapiens, UniProt Q13133); assay: Ligand induced translocation of LXRα to the nucleus, immunofluorescence in HaCaT; type: cell-based; conditions: 10^−7 M, 24 h
T3 construct: endogenous in cells; host or cells: HaCaT keratinocytes
T3 sequence (Q13133 1-447): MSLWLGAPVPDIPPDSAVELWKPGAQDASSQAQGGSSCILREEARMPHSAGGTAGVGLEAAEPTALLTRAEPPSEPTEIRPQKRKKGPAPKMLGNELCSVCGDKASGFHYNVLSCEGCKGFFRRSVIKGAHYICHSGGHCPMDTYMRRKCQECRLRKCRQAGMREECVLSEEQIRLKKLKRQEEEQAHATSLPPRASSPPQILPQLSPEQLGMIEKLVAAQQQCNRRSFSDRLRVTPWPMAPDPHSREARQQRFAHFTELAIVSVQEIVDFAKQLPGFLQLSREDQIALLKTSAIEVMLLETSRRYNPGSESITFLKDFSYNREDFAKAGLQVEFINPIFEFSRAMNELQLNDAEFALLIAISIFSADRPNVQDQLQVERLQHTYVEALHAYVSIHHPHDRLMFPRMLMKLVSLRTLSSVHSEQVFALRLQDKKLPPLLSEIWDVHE
Procedure: (§2) HaCaT cells were plated in DMEM plus 5% cFBS either on a sterile glass cover slip placed in a well of a 6-well plates for immunofluorescence (IF) assays or TPP Petri dishes for image-stream flow cytometry, and treated with 10^–7 M D3- or L3-hydroxyderivatives or 0.1% ethanol (vehicle) as a negative control was added to each well, and the cells were incubated for 12 or 24 h at 37 °C with 5% CO2. For IF the cells were fixed in 4% paraformaldehyde for 15 min, incubated in 0.5% Triton X-100 in phosphate-buffered saline (PBS) for 5 min, and washed 3 times in PBS. After blocking with 2% bovine serum albumin (BSA) in PBS for 1 h at room temperature, the cells were treated with an anti-LXRα antibody (Novus Biologicals, LLC, Centennial, CO) at 1:200 in PBS supplemented with 2% BSA overnight in 4 °C. After washing the slides were incubated with a mouse anti-rabbit IgG-FITC (Santa Cruz Biotechnology, Inc, Dallas, TX) at 1:200 dilution for 1.5 h at 37 °C. After washing the slides were mounted using propidium iodide (PI) (Vector Labs, Burlingame, California) as a nuclear counterstain. The slides were examined using a KEYENCE America BZ-X710 Fluorescence Microscope (Itasca, IL). The images were subsequently analyzed using the JACoP plugin for colocalization analysis with ImageJ[74]. Five separate high-power field (40×) images were converted to grayscale and analyzed for each condition. Manders’ coefficient (M1), calculated using a preset threshold, was used to quantify the degree of colocalization between PI and LXRα with 0 representing no colocalization, and 1 representing perfect colocalization.

LXRα/β = assay: Ligand induced translocation of LXRα/β to the nucleus, imaging flow cytometry in HaCaT; type: cell-based, human; conditions: 10^–7 M, 12 h
Procedure: as §2
For Image Stream II (Amnis, Seattle, WA, USA) cytometer analyses, HaCaT cells were detached and processed as previously described. The cells were fixed with paraformaldehyde and permeabilized in methanol containing buffer[78],[79] and Hoechst stain (r37165, ThermoFisher) and rabbit antibodies to LXRα/β (sc 377260, AF 647, SantaCruz) or VDR (sc-13133, AF 488, SantaCruz) as described previously. Data were analyzed using IDEAS software (Amnis, Seattle, WA, USA).

VDR = biological target: T4, VDR (Homo sapiens, UniProt P11473); assay: Translocation of VDR to the nucleus, imaging flow cytometry in HaCaT; type: cell-based; conditions: 10^–7 M, 12 h
T4 construct: endogenous in cells; host or cells: HaCaT keratinocytes
T4 sequence (P11473 1-427): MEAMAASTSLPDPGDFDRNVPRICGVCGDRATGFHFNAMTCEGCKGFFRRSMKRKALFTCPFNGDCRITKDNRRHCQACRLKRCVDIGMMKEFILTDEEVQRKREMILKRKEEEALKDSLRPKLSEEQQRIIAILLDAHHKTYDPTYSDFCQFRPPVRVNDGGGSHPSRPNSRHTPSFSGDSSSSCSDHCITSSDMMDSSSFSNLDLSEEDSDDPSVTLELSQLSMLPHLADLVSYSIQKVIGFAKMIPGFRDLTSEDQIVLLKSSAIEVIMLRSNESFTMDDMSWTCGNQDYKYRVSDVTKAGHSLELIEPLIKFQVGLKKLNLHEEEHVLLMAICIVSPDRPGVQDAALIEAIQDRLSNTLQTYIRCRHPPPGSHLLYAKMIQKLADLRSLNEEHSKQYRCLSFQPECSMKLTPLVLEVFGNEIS

## C=C1C(=CC=C2CCCC3(C)C2CCC3C(C)(O)CCCC(C)(C)O)CC(O)CC1O (stereo not drawn) [1,20,25(OH)3D3]
LBD of LXRβ
  EC50: 0.0038 µM
[1]; CHO and HaCaT cells (Fig. 4C)
  LXRE luciferase (transcriptional) activity: strongest stimulatory effects

## C=C1CC[C@H](O)C/C1=C/C=C1\CCC[C@]2(C)[C@@H]([C@H](C)CCCC(C)(C)O)CC[C@@H]12 [25(OH)D3, reference compound]
LBD of LXRα
  EC50: 0.011 µM
LBD of LXRβ
  EC50: 3.8 µM
ABCA1
  ABCA1 RNA expression (qPCR): stimulation
LXRα
  translocation of LXRα to the nucleus (immunofluorescence, Manders' coefficient): induced translocation
LXRα/β
  translocation of LXRα/β from the cytoplasm to the nucleus: increased translocation
VDR
  translocation of VDR from the cytoplasm to the nucleus: increased translocation

## C=C1C(=CC=C2CCCC3(C)C2CCC3C(C)(O)CCC(O)C(C)C)CC(O)CC1O (stereo not drawn) [1,20,24(OH)3D3]
[1]; CHO and HaCaT cells (Fig. 4C)
  LXRE luciferase (transcriptional) activity: strongest stimulatory effects

## C=C1CCC(O)CC1=CC=C1CCCC2(C)C1CCC2(O)C(C)O (stereo not drawn) [17,20(OH)2pD]
LBD of LXRα
  EC50: 30 µM
LBD of LXRβ
  EC50: 2.6 µM
[1]; CHO cells
  LXRE luciferase (transcriptional) activity: weakest stimulant
